Laboratory results reported in patent US20240262842A1, “SMALL MOLECULE INHIBITORS OF KRAS G12C MUTANT” (Merck Sharp & Dohme LLC, priority 2021, published 2024).
Read-outs that look alike come from different tables or passages of the source.

Columns and labels:
[1] = biological target: T1, interaction between GMPPNP-bound recombinant K-Ras4B G12C mutant protein and cRAF RAS-binding domain (cRAF-RBD) (Homo sapiens, UniProt P01116, G12C); assay: Inhibitory activity on interaction between KRAS G12C and cRAF (Alpha technology)
T1 construct: His-tag (N)
T1 sequence (P01116 with tags, fused parts or gaps isoform P01116-2 G12C): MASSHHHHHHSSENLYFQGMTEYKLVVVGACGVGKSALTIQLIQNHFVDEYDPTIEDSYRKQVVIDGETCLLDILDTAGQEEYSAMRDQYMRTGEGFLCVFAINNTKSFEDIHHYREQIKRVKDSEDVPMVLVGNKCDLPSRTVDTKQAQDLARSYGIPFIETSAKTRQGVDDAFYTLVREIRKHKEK
Protocol: Interaction between recombinant K-Ras4B G12C mutant protein (amino acids 1-169, SEQ ID NO:2) and cRAF RAS-binding domain (cRAF-RBD, amino acids 50-132, Jena Biosciences GmbH) was measured using Alpha technology (PerkinElmer Inc.).
Recombinant KRAS G12C protein with an N-terminal His-tag was expressed in E. coli and purified by affinity chromatography. To prepare GTP-bound form and GDP-bound form of KRAS G12C protein, 50 μM KRAS G12C protein was incubated with 1 mM GMPPNP (Guanosine-5′-[(β,γ)-imido]triphosphate, Tetralithium salt) (Jena Bioscience GmbH) and 1 mM GDP, respectively, in a loading buffer (20 mM Tris-HCl (pH 7.5), 50 mM NaCl, 1 mM DTT and 2.5 mM EDTA) for 1 hour on ice. After the incubation, MgCl2 was added to a final concentration of 10 mM, followed by incubation at room temperature for 30 minutes. The mixture was allowed to pass through a NAP-5 column to remove free nucleotides and purified, and the resultant nucleotide-bound KRAS G12C protein was used for compound evaluation.
For the measurement of the inhibitory activity of compounds on interaction between KRAS G12C and cRAF-RBD, GMPPNP-bound KRAS G12C protein was incubated with various concentrations of compound in a reaction buffer (20 mM Tris-HCl (pH 7.5), 100 mM NaCl, 1 mM MgCl2, 1 mM TCEP, 0.1% Tween 20) at 25° C. for 1 hour. After the incubation, recombinant cRAF-RBD and Alpha detection reagents were added and incubated at room temperature for 1.5 hours for binding. Interaction of KRAS G12C and cRAF-RBD was monitored by measuring Alpha signal. Inhibition % was calculated using the signal from the reaction without test compound (DMSO control) as 0% inhibition and the signal from the reaction using GDP-bound KRAS G12C in place of GMPPNP-bound KRAS G12C as 100% inhibition. IC50 values were calculated from dose titration curve using curve fitting by XLfit software (IDBS).

MIA PaCa-2 cells = assay: Growth inhibition activity on KRAS-G12C mutant cell line (CellTiter-Glo 3D); assay type: cell-based, human; details: MIA PaCa-2, 3-day culture with compound
Protocol: MIA PaCa-2 cells (given by Sumitomo Dainippon Pharma Co., Ltd.), which are a KRAS-G12C mutant human pancreas cancer cell line, were suspended in a 10% fetal bovine serum-containing RPMI1640 medium (manufactured by Fujifilm Wako Pure Chemical Corporation). The cell suspension was seeded into each well of a 384-well U bottom microplate and cultured in an incubator containing 5% CO2 gas at 37° C. for 1 day. The compounds obtained in the “Preparation of Compounds” section were used as test compounds and were dissolved in DMSO, respectively, and each test compound was diluted with DMSO to give a concentration 500 times the final concentration. The resultant solution of the test compound in DMSO was diluted with the medium used for suspending cells and added to each well of the cell-culture plate to give a DMSO final concentration of 0.2%, followed by culture in an incubator containing 5% CO2 gas at 37° C. for another 3 days. The cell count after 3-day culture in the presence of the test compound was measured using CellTiter-Glo 3D Reagent (manufactured by Promega Corporation). All wells were added with CellTiter-Glo 3D Reagent and mixed for 10 minutes. 30 minutes after mixing, luminescence was measured by a plate reader. The growth inhibition rate was calculated from the following equation, and the concentration of the test compound at which 50% inhibition was achieved (IC50 (nM)) was determined.
[formula] • T: the emission intensity in a well into which a test compound was added. • C: the emission intensity in a well into which a test compound was not added.

[2] = GMPPNP-bound KRAS G12C incubated with compound 25° C. 1 hour, Table 2-1, read-out: IC50
[3] = Homo sapiens, MIA PaCa-2, 72 h, Table 3-1
[4] = IC50, GMPPNP-bound KRAS G12C incubated with compound 25° C. 1 hour, Table 2-1
[5] = IC50, GMPPNP-bound KRAS G12C incubated with compound 25° C. 1 hour, Table 2
[6] = GMPPNP-bound KRAS G12C incubated with compound 25° C. 1 hour, Table 2, read-out: IC50

Row | SMILES | IC50 [1, 2] [nM] | IC50 (MIA PaCa-2 cells; [3]) [nM] | IC50 [1, 5] [nM] | IC50 (MIA PaCa-2 cells; Table 3) [nM] | also measured
1 | CN1CCc2cc(C(=O)c3cc(F)c(NC(=O)/C=C/CN[C@H]4CCOC4)c(F)c3)n3cccc(c23)-c2c(C(F)(F)F)cc3[nH]cnc3c21 (atropisomer, axis not shown) [Example 218] | 27 | 14.2 | – | – | –
2 | CN1CCc2cc(C(=O)c3cc(F)c(NC(=O)/C=C/CNC4(C)CC4)c(F)c3)n3cccc(c23)-c2c(C(F)(F)F)cc3[nH]cnc3c21 (atropisomer, axis not shown) [Example 239, (E)-N-(2,6-difluoro-4-(12-methyl-7-(trifluorometh-yl)-9,12,13,14-tetrahydro-imidazo[4″,5″:5′,6′]benzo-[1′,2′:2,3]azocino[4,5,6-hi]indolizine-2-carbonyl)-phenyl)-4-((1-methyl-cyclopropyl)amino)but-2-enamide] | 18.2 | 9.69 | – | – | –
3 | Cc1cc2c(nc(C)n2C)c2c1-c1cccc3c(C(=O)c4cc(F)c(NC(=O)/C=C/CN[C@H]5C[C@@H]6CC[C@H]5O6)c(F)c4)cn(c13)CCN2C (racemic) [Example 135] | – | 28.9 | – | – | IC50 [1, 4]: 11 nM
4 | Cc1cc2c(nc(C)n2C)c2c1-c1cccc3c(C(=O)c4cc(F)c(NC(=O)/C=C/CN5[C@@H]6CC[C@H]5[C@@H](O)C6)c(F)c4)cn(c13)CCN2C (racemic) [Example 142] | – | 85.5 | – | – | IC50 [1, 4]: 28.1 nM
5 | Cc1cc2c(nc(C)n2C)c2c1-c1cccc3c(C(=O)c4cc(F)c(NC(=O)/C=C/CN5[C@@H]6CC[C@H]5[C@H](O)C6)c(F)c4)cn(c13)CCN2C (racemic) [Example 144] | – | 30.2 | – | – | IC50 [1, 4]: 22.4 nM
6 | Cn1cnc2c3c(c(C(F)(F)F)cc21)-c1cccn2c(C(=O)c4cc(F)c(NC(=O)/C=C/CN5CC[C@H]6CC[C@H](O)[C@H]65)c(F)c4)cc(c12)CCO3 (racemic) [Example 163] | 33.5 | 42.7 | – | – | –
7 | Cn1cnc2c3c(c(C(F)(F)F)cc21)-c1cccn2c(C(=O)c4cc(F)c(NC(=O)/C=C/CN5CC[C@H]6CC[C@@H](O)[C@H]65)c(F)c4)cc(c12)CCO3 (racemic) [Example 164] | 21.5 | 13.7 | – | – | –
8 | Cn1cnc2c3c(c(C(F)(F)F)cc21)-c1cccn2c(C(=O)c4cc(F)c(NC(=O)/C=C/CN5[C@@H]6CC[C@H]5[C@@H](O)C6)c(F)c4)cc(c12)CCO3 (racemic) [Example 172] | 10.4 | 16.2 | – | – | –
9 | Cn1cnc2c3c(c(C(F)(F)F)cc21)-c1cccn2c(C(=O)c4cc(F)c(NC(=O)/C=C/CN5[C@@H]6CC[C@H]5[C@H](O)C6)c(F)c4)cc(c12)CCO3 (racemic) [Example 173] | 7.02 | 10.6 | – | – | –
10 | Cn1cnc2c3c(c(C(F)(F)F)cc21)-c1cccn2c(C(=O)c4cc(F)c(NC(=O)/C=C/CN5C[C@@H]6COC[C@H]6C5)c(F)c4)cc(c12)CCO3 (racemic) [Example 248] | 18 | 21.8 | – | – | –
11 | CO[C@H]1CC[C@H](NC/C=C/C(=O)Nc2c(F)cc(C(=O)c3cn4c5c(cccc35)-c3c(Cl)cccc3OCC4)cc2F)CC1 (single isomer, unassigned) [Example 1-1] | – | – | > 6700 | 7700 | –
12 | CO[C@H]1CC[C@H](NC/C=C/C(=O)Nc2c(F)cc(C(=O)c3cn4c5c(cccc35)-c3c(Cl)cccc3OCC4)cc2F)CC1 (single isomer, unassigned) [Example 1-2] | – | – | 180 | 160 | –
13 | CC(C)(C)NC/C=C/C(=O)Nc1c(F)cc(C(=O)c2cn3c4c(cccc24)-c2c(Cl)cccc2OCCC3)cc1F (single isomer, unassigned) [Example 2-1, (E)-4-(tert-butylamino)-N-(4-(11-chloro-5,6-dihydro-4H-benzo[8,9][1,5]oxazonino[7,6,5-hi]indole-1-carbonyl)-2,6-difluorophenyl)but-2-enamide] | – | – | > 6700 | 3100 | –
14 | CC(C)(C)NC/C=C/C(=O)Nc1c(F)cc(C(=O)c2cn3c4c(cccc24)-c2c(Cl)cccc2OCCC3)cc1F (single isomer, unassigned) [Example 2-2, (E)-4-(tert-butylamino)-N-(4-(11-chloro-5,6-dihydro-4H-benzo[8,9][1,5]oxazonino[7,6,5-hi]indole-1-carbonyl)-2,6-difluorophenyl)but-2-enamide] | – | – | 500 | 390 | –
15 | CO[C@H]1CC[C@H](NC/C=C/C(=O)Nc2c(F)cc(C(=O)c3cn4c5c(cccc35)-c3c(Cl)cccc3OCCC4)cc2F)CC1 (single isomer, unassigned) [Example 4-1, (E)-N-(4-(11-chloro-5,6-dihydro-4H-benzo[8,9][1,5]oxazonino[7,6,5-hi]indole-1-carbonyl)-2,6-difluorophenyl)-4-(((1,4r)-4-methoxycyclohexyl)amino)but-2-enamide] | – | – | > 6700 | 3600 | –
16 | CO[C@H]1CC[C@H](NC/C=C/C(=O)Nc2c(F)cc(C(=O)c3cn4c5c(cccc35)-c3c(Cl)cccc3OCCC4)cc2F)CC1 (single isomer, unassigned) [Example 4-2, (E)-N-(4-(11-chloro-5,6-dihydro-4H-benzo[8,9][1,5]oxazonino[7,6,5-hi]indole-1-carbonyl)-2,6-difluorophenyl)-4-(((1,4r)-4-methoxycyclohexyl)amino)but-2-enamide] | – | – | 290 | 260 | –
17 | CO[C@H]1CC[C@H](NC/C=C/C(=O)Nc2c(F)cc(C(=O)c3cn4c5c(cccc35)-c3c(cc(N5CCCC5=O)cc3C(F)(F)F)OCC4)cc2F)CC1 (single isomer, unassigned) [Example 5-1, (E)-N-(2,6-difluoro-4-(8-(2-oxopyrrolidin-1-yl)-10-(trifluoromethyl)-4,5-dihydrobenzo[7,8][1.4]oxazocino[6,5,4-hi]indole-1-carbonyl)phenyl)-4-(((1r,4t)-4-methoxycyclohexyl)amino)but-2-enamide] | – | – | 53 | 14 | –
18 | CO[C@H]1CC[C@H](NC/C=C/C(=O)Nc2c(F)cc(C(=O)c3cn4c5c(cccc35)-c3c(cc(N5CCCC5=O)cc3C(F)(F)F)OCC4)cc2F)CC1 (single isomer, unassigned) [Example 5-2, (E)-N-(2,6-difluoro-4-(8-(2-oxopyrrolidin-1-yl)-10-(trifluoromethyl)-4,5-dihydrobenzo[7,8][1.4]oxazocino[6,5,4-hi]indole-1-carbonyl)phenyl)-4-(((1r,4t)-4-methoxycyclohexyl)amino)but-2-enamide] | – | – | > 6700 | 1800 | –
19 | C=C1Cc2cc(C(=O)c3cc(F)c(NC(=O)/C=C/CN[C@H]4CC[C@H](OC)CC4)c(F)c3)n3cccc(c23)-c2c(C)cc3c(nc(C)n3C)c21 [Example 48, (E)-N-(2,6-difluoro-4-(2,3,5-trimethyl-13-methylene-12,13-dihydro-3H-imidazo[4″,5″:5′,6′]benzo[1′,2′:6,7]cyclohepta[1,2,3-hi]indolizine-10-carbonyl)phenyl)-4-(((1r,4r)-4-methoxycyclohexyl)amino)but-2-enamide] | – | – | – | – | IC50 [1, 6]: 93 nM
20 | Cc1nc2c3c(c(C(F)(F)F)cc2n1C)-c1cccn2c(C(=O)c4cc(F)c(NC(=O)/C=C/CNC5(CF)COC5)c(F)c4)cc(c12)CCO3 [Example 50, (E)-N-(4-(9,10-dimethyl-7-(trifluoromethyl)-13,14-dihydro-9H-imidazo[4″,5″:5′,6′]benzo[1′,2′:2,3]oxocino[4,5,6-hi]indolizine-2-carbonyl)-2,6-difluorophenyl)-4-((3-(fluoromethyl)oxetan-3-yl)amino)but-2-enamide] | – | – | – | – | IC50 [1, 6]: 780 nM
